Source: PubChem BioAssay AID1963846 (Molecular Pharmacology Branch, DTP, NCI, 2024)
Where “and” joins values, the source holds several entries; their conditions need not be identical. Equal entries are not always repeated.

Tested on: 454973-116-R2-J3-PDC complex spheroid viability
Experiment: Anticancer human tumor 454973-116-R2-J3-PDC patient-derived pancreatic carcinoma cell line growth inhibition [POLQ]
Conditions: for viability, T/C: stronger effect = lower value; for IC50: curve of compound
Protocol: Multicellular complex tumor spheroid response to Polymerase (POL) inhibitors (novobiocin, ART-558, RP6685) in combination with a variety of drugs and investigational agents in selected tumor cell lines
The POL inhibitors (novobiocin, ART-558, and RP6685) were evaluated both individually and in combination with standard of care and investigational anticancer small molecules within a complex spheroid model of solid tumors. . Complex spheroids include a stromal component modeled by human endothelial cells (HUVEC) and fibroblasts modeled by human mesenchymal stem cells (MSCs). The concentration ranges selected for each drug and investigational agent were based upon clinically achievable concentrations if the clinical Cmax of the agent was known.
Compounds. The drugs and investigational agents: novobiocin (NSC847541), ART-558 (NSC835418), RP-6685 (NSC848927), peposertib (NSC802822), ceralasertib (NSC780249), elimusertib (NSC800525), camonsertib (NSC841442), AZD-1390 (NSC803789), olaparib (NSC753686), talazoparib (NSC767125), rucaparib (NSC756644), sotorasib (NSC818433), MRTX-1133 (NSC836407), SN-38 (NSC673596), topotecan (NSC609699), epotoside (NSC141540), doxorubicin (NSC123127), gemcitabine (NSC613327), 5-fluorouracil (NSC19893), paclitaxel (NSC125973), vemurafenib (NSC761431), MSA-2 (NSC828583), SN-011 (NSC837082), adavosertib (NSC754352), prexasertib (NSC758257), carboplatin (NSC241240) and oxaliplatin (NSC266046), were obtained from the National Cancer Institute (NCI) Developmental Therapeutics Program Chemical Repository (21). The FDA-approved anticancer drug set is available from the Developmental Therapeutics Program at https://dtp.cancer.gov/organization/dscb/obtaining/. […] The stock solutions were prepared in dimethyl sulfoxide (DMSO, Sigma-Aldrich, St. Louis, MO, cat. D2650), except for the platinum compounds which were prepared in saline (Quality Biological, Gaithersburg, MD, cat. 114-055-101), at 800-fold the tested concentration and stored at -70 degrees C prior to their use. All drugs and investigational agents were tested over a range starting from a high concentration at or near the clinical Cmax and decreasing in half-log increments. If the clinical Cmax for an agent had not been determined, the highest concentration tested was 10 microM, except for SN-38, which was tested at a high concentration of 1 microM.
Cell Culture. All cells were maintained in an incubator at 37 degrees C and 5% CO2 with 95% humidity. The PDC lines were cultured according to standard operating procedures established by the NCI PDMR (https://pdmr.cancer.gov). Table 3 of the manuscript, lists the cell lines along with the number of the three cell types plated to form the mct-spheroids and media for tumor cell growth. After thawing, all PDC lines, except 997537-175-T-J1-PDC and 415267-285-R-J2-PDC, were cultured in Matrigel-coated flasks prepared with a working solution of 1X Ham's F-12 nutrient mix, without supplementation (Thermo Fisher Scientific, cat. 11765054), 100 U/mL penicillin-streptomycin (Thermo Fisher Scientific, cat. 15140122), and 2.5% Matrigel (Corning Inc., Corning, NY, cat. 354248) for the first three passages. The two PDC lines 997537-175-T-J1-PDC and 415267-285-R-J2-PDC were cultured on uncoated flasks. The 857933-349-R-J2-PDC line was cultured in 6C/Colon 1B media containing advanced DMEM/F-12 (Thermo Fisher Scientific, cat. 12634028), 10 mM HEPES (Thermo Fisher Scientific, cat. 15630080), 1X GlutaMAX supplement (Thermo Fisher Scientific, cat. 35050061), 0.1 mg/mL primocin (InvivoGen, San Diego, CA, cat. ant-pm-2), 10% defined fetal bovine serum, heat inactivated (HyClone Laboratories Inc., Logan, UT, cat. SH30070.03HI), 50% L-WRN conditioned media (ATCC, cat. CRL-3276), 1.25 mM N-Acetyl-L-cysteine (Sigma-Aldrich, cat. A9165), 10 mM nicotinamide (Sigma-Aldrich, cat. N0636), 1X B-27 supplement (Thermo Fisher Scientific, cat. 17504044), 1X N-2 supplement (Thermo Fisher Scientific, cat. […]
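Also: spheroids exposed to drugs for seven days before measurement.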
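For viability, T/C in this document: percent viability relative to DMSO vehicle control wells taken as 100%.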

| Compound | viability, T/C (compound 0.0316 µM) | viability, T/C (compound 0.1 µM) | viability, T/C (compound 0.316 µM) | viability, T/C (compound 1 µM) | viability, T/C (compound 3.16 µM) | viability, T/C (compound 10 µM) | IC50 |
| --- | --- | --- | --- | --- | --- | --- | --- |
| CNCc1ccc(-c2[nH]c3cc(F)cc4c3c2CCNC4=O)cc1 | 103% and 105% and 99% | 91.9% and 102% and 93% | 97% and 98.4% and 112% | 100% and 106% and 97.7% | 111% and 101% and 102% | 81.6% and 96.5% and 83.7% | > 10000 nM |
| Nc1ccn(C2OC(CO)C(O)C2(F)F)c(=O)n1 (stereo unspecified) | 12.9% and 5.69% and 16.6% | 14.2% and 8.25% and 9.25% | 11.2% and 8.63% and 12.6% | 14.3% and 7.78% and 11.7% | 12% and 9.22% and 12.5% | 11.3% and 5.91% and 10.8% | < 31.6 nM |
| C#Cc1c(F)ccc2cc(O)cc(-c3ncc4c(N5CC6CCC(C5)N6)nc(OCC56CCCN5CC(F)C6)nc4c3F)c12 (stereo unspecified) | 57.4% and 52.2% and 68.6% | 44.5% and 37.2% and 52.2% | 32.2% and 26% and 35.8% | 28.6% and 24.5% and 29.1% | 23.6% and 21.5% and 29.5% | 21.4% and 19.2% and 26.2% | 59.1 nM and 37.5 nM and 117 nM |
